Consider 31 compounds from patent US12441703B2, “Carboxamides as modulators of sodium channels” (VERTEX PHARMACEUTICALS INCORPORATED, priority 2019, dated 2025).

The assay addresses human NaV 1.8 (Homo sapiens, UniProt Q9Y5Y9). Briefly: E-VIPR assay for detecting and measuring NaV inhibition properties. Format: cell-based. Conditions: E-VIPR assay conducted in the presence of human serum; HEK cells expressing truncated human NaV 1.8; read-out: IC50. The method in brief: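 Membrane-potential (coumarin/oxonol) readout after 10 s of 10 Hz biphasic electrical stimulation on E-VIPR. Compounds: 11-point 3-fold dilutions, […], 0.625% DMSO, 30 min at room temperature, human serum optional. Cells: HEK expressing truncated human NaV1.8 co-transduced with KIR2.1.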

human NaV 1.8, sequence (Q9Y5Y9 whole entry, looked up, the tested form may be a part): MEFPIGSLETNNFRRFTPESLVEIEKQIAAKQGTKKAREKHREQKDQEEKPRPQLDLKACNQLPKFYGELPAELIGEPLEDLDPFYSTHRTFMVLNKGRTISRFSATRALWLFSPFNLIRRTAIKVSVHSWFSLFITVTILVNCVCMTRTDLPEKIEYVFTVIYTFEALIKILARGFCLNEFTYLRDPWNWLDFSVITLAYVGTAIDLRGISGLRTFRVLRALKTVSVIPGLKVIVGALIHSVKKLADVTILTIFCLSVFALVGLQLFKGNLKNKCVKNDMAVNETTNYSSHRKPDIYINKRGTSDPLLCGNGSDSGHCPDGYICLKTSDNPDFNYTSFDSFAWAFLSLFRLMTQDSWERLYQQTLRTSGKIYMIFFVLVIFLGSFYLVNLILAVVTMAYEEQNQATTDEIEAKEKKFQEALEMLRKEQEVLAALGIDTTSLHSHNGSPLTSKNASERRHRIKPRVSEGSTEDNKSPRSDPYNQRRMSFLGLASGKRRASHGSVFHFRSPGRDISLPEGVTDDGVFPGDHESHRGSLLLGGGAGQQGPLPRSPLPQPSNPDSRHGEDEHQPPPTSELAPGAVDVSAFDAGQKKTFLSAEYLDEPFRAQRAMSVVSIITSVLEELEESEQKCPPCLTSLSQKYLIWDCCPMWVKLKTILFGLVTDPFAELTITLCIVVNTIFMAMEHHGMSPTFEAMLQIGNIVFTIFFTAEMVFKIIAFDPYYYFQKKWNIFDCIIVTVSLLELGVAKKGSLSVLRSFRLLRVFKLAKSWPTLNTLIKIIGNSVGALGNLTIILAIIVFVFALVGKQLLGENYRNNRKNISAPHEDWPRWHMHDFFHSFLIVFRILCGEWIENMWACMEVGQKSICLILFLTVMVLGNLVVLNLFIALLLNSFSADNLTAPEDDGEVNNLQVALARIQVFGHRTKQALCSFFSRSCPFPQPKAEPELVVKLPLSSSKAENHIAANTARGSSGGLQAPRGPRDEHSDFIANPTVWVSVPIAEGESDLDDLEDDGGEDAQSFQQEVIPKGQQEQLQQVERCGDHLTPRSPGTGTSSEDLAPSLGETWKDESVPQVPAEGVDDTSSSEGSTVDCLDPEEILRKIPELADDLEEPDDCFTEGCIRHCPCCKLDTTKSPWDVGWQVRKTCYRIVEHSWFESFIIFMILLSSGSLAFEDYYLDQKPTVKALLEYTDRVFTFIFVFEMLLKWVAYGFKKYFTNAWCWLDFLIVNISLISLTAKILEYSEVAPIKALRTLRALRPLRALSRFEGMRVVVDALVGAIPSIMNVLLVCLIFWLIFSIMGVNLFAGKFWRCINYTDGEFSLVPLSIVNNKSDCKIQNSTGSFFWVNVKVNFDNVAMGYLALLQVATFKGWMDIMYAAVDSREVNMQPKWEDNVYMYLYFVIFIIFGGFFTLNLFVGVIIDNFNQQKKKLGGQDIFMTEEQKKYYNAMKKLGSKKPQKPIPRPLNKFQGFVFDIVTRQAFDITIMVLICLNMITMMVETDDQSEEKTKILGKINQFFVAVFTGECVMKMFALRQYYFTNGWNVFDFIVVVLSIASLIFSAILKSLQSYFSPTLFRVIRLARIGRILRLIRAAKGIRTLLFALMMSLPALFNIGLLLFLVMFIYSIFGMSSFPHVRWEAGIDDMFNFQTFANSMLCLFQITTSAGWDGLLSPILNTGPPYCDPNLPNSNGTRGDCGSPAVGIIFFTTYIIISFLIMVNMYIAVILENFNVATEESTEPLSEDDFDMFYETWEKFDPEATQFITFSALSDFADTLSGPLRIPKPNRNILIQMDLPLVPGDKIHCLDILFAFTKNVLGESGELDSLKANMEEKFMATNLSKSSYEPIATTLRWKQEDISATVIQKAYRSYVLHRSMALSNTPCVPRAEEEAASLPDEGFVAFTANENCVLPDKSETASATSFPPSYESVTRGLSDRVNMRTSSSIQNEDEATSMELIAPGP

The IC50 is the midpoint of a concentration-inhibition curve. Consider `Cc1c(Oc2ccc(C(F)(F)F)c(F)c2C(=O)Nc2ccc(C(N)=O)nc2)ccc(OC(F)(F)F)c1F` [Compound 292, 5-[[2-Fluoro-6-[3-Fluoro-2-Methyl-4-(Trifluoromethoxy)Phenoxy]-3-(Trifluoromethyl)Benzoyl]Amino]Pyridine-2-Carboxamide], for which the IC50 amounted to 54.5 nM.
Take `COc1nc(Cl)ccc1Oc1ccc(C(F)(F)F)cc1C(=O)Nc1ccnc(C(N)=O)c1` [Compound 1, 4-[[2-[(6-Chloro-2-Methoxy-3-Pyridyl)Oxy]-5-(Trifluoromethyl)Benzoyl]Amino]Pyridine-2-Carboxamide]: the IC50 was found to be 390 nM.
`NC(=O)c1cc(NC(=O)c2c(Oc3ccc(F)c4c3OCC4)cccc2C(F)(F)F)ccn1` [Compound 78, 4-[[2-[(4-fluoro-2,3-dihydrobenzofuran-7-yl)oxy]-6-(trifluoromethyl)benzoyl]amino]pyridine-2-carboxamide]: the IC50 is > 3000 nM.
The figure for `COc1nc(Cl)ccc1Oc1cccc(C(F)(F)F)c1C(=O)Nc1ccnc(C(N)=O)c1` [Compound 73, 4-[[2-[(6-chloro-2-methoxy-3-pyridyl)oxy]-6-(trifluoromethyl)benzoyl]amino]pyridine-2-carboxamide] is 1500 nM; for `COc1cc(OC(F)(F)F)ccc1Oc1cnc(C(F)(F)F)c(C)c1C(=O)Nc1cnc(C(N)=O)nc1` [Compound 270, 5-[[5-[2-methoxy-4-(trifluoromethoxy)phenoxy]-3-methyl-2-(trifluoromethyl)pyridine-4-carbonyl]amino]pyrimidine-2-carboxamide] it is 33 nM; for `COc1cc(OC(F)(F)F)ccc1Oc1ccc(C(F)(F)F)c(Br)c1C(=O)Nc1ccnc(C(N)=O)c1` [Compound 194, 4-[[2-bromo-6-[2-methoxy-4-(trifluoromethoxy)phenoxy]-3-(trifluoromethyl)benzoyl]amino]pyridine-2-carboxamide] it is 2 nM.
With `COc1ccc(Cl)cc1Oc1ccc(C(F)(F)F)cc1C(=O)Nc1ccnc(C(N)=O)c1` [Compound 15, 4-[[2-(5-chloro-2-methoxy-phenoxy)-5-(trifluoromethyl)benzoyl]amino]pyridine-2-carboxamide], the IC50 was > 3000 nM.
Take `COc1cc(OC(F)(F)F)ccc1Oc1cc(C(F)(F)F)cc(Br)c1C(=O)Nc1ccnc(C(N)=O)c1` [Compound 255, 4-[[2-bromo-6-[2-methoxy-4-(trifluoromethoxy)phenoxy]-4-(trifluoromethyl)benzoyl]amino]pyridine-2-carboxamide]: the IC50 was > 3000 nM.
For `COc1cc(OC(F)(F)F)ccc1Oc1ccc(OC(F)(F)F)c(F)c1C(=O)Nc1ccnc(C(N)=O)c1` [Compound 280, 4-[[2-Fluoro-6-[2-Methoxy-4-(Trifluoromethoxy)Phenoxy]-3-(Trifluoromethoxy)Benzoyl]Amino]Pyridine-2-Carboxamide], the IC50 worked out at 4 nM.
In the case of `Cc1cc(Cl)ccc1Oc1ccc(C(F)(F)F)c(F)c1C(=O)Nc1ccnc(C(N)=O)c1` [Compound 50, 4-[[6-(4-chloro-2-methyl-phenoxy)-2-fluoro-3-(trifluoromethyl)benzoyl]amino]pyridine-2-carboxamide], the IC50 worked out at 33 nM.
`COc1cc(OC(F)(F)F)ccc1Oc1cc(C2CCC(C(F)(F)F)CC2)cc(F)c1C(=O)Nc1ccnc(C(N)=O)c1` (single isomer, unassigned) [168 (second diastereomer), 4-[[2-fluoro-6-[2-methoxy-4-(trifluoromethoxy)phenoxy]-4-[4-(trifluoromethyl)cyclohexyl]benzoyl]amino]pyridine-2-carboxamide]: the IC50 came to 10 nM.
Consider `CC(C)Oc1ccc(Oc2ccc(C(F)(F)F)cc2C(=O)Nc2ccnc(C(N)=O)c2)cc1F` [Compound 7, 4-[[2-(3-fluoro-4-isopropoxy-phenoxy)-5-(trifluoromethyl)benzoyl]amino]pyridine-2-carboxamide], for which the concentration for half-maximal inhibition (IC50) amounted to 660 nM.
Consider `COc1cc(Oc2ccc(OC(F)(F)F)cc2Cl)c(C(=O)Nc2ccc(C(N)=O)nc2)c(F)c1C(F)(F)F` [Compound 370, 5-[[6-[2-chloro-4-(trifluoromethoxy)phenoxy]-2-fluoro-4-methoxy-3-(trifluoromethyl)benzoyl]amino]pyridine-2-carboxamide], for which the IC50 was found to be 43 nM.
The same measure for `COc1cc(OC(F)(F)F)ccc1Oc1cc(-c2ccoc2)ccc1C(=O)Nc1ccnc(C(N)=O)c1` [Compound 154, 4-[[4-(3-furyl)-2-[2-methoxy-4-(trifluoromethoxy)phenoxy]benzoyl]amino]pyridine-2-carboxamide]: 988 nM; for `NC(=O)c1ccc(NC(=O)c2c(Oc3ccc(OC(F)(F)F)cc3F)ccc(C(F)(F)F)c2F)cn1` [Compound 221, 5-[[2-fluoro-6-[2-fluoro-4-(trifluoromethoxy)phenoxy]-3-(trifluoromethyl)benzoyl]amino]pyridine-2-carboxamide]: 430 nM; for `NC(=O)c1cc(NC(=O)c2c(Oc3ccc(F)c4c3OCC4)ccc(C(F)(F)F)c2F)ccn1` [Compound 30, 4-[[2-fluoro-6-[(4-fluoro-2,3-dihydrobenzofuran-7-yl)oxy]-3-(trifluoromethyl)benzoyl]amino]pyridine-2-carboxamide]: 43 nM.
The figure for `NC(=O)c1cc(NC(=O)c2c(Oc3ccc(F)c(F)c3F)ccc(C(F)(F)F)c2F)ccn1` [Compound 49, 4-[[2-fluoro-3-(trifluoromethyl)-6-(2,3,4-trifluorophenoxy)benzoyl]amino]pyridine-2-carboxamide] is 42 nM.
In the case of `COc1c(C(F)(F)F)ccc(Oc2ccc(F)c(Cl)c2)c1C(=O)Nc1ccnc(C(N)=O)c1` [Compound 57, 4-[[6-(3-chloro-4-fluoro-phenoxy)-2-methoxy-3-(trifluoromethyl)benzoyl]amino]pyridine-2-carboxamide], the IC50 is 350 nM.
For the compound `NC(=O)c1cc(NC(=O)c2c(Oc3ccc(OC(F)(F)F)cc3Cl)ccc(C(F)(F)F)c2Cl)ccn1` [Compound 192], the IC50 amounted to 4 nM.
As to `COc1cc(OC(F)(F)F)ccc1Oc1cc(C2CC2)cc(C)c1C(=O)Nc1ccnc(C(N)=O)c1` [Compound 248, 4-[[4-cyclopropyl-2-[2-methoxy-4-(trifluoromethoxy)phenoxy]-6-methyl-benzoyl]amino]pyridine-2-carboxamide], the IC50 came to 27 nM.
The figure for `Cc1c(Oc2ccc(C(F)(F)F)c(C)c2C(=O)Nc2ccc(C(N)=O)nc2)ccc(F)c1F` [Compound 227, 5-[[6-(3,4-difluoro-2-methyl-phenoxy)-2-methyl-3-(trifluoromethyl)benzoyl]amino]pyridine-2-carboxamide] is 610 nM; for `CC(C)Oc1ccc(Oc2cc(C(F)(F)F)ccc2C(=O)Nc2ccnc(C(N)=O)c2)cc1` [Compound 164, 4-[[2-(4-isopropoxyphenoxy)-4-(trifluoromethyl)benzoyl]amino]pyridine-2-carboxamide] it is > 3000 nM; for `COc1cc(Oc2ccc(F)c(F)c2OC)c(C(=O)Nc2cnc(C(N)=O)nc2)c(F)c1C(F)(F)F` [Compound 380, 5-[[6-(3,4-difluoro-2-methoxy-phenoxy)-2-fluoro-4-methoxy-3-(trifluoromethyl)benzoyl]amino]pyrimidine-2-carboxamide] it is 26 nM.
In the case of `[2H]C([2H])([2H])Oc1cc(OC(F)(F)F)ccc1Oc1cc2c(cc1C(=O)Nc1ccc(C(N)=O)nc1)OCCO2` [Compound 1037], the IC50 was > 3000 nM.
Take `Cc1c(Oc2ccc(C(F)(F)F)c(F)c2C(=O)Nc2ccnc(C(N)=O)c2)ccc(F)c1F` [Compound 42, 4-[[6-(3,4-difluoro-2-methyl-phenoxy)-2-fluoro-3-(trifluoromethyl)benzoyl]amino]pyridine-2-carboxamide]: the IC50 stood at 8 nM.
`NC(=O)c1cc(NC(=O)c2c(Oc3ccc(OC(F)(F)F)c(F)c3C3CC3)ccc(C(F)(F)F)c2F)ccn1` [Compound 345, 4-[[6-[2-cyclopropyl-3-fluoro-4-(trifluoromethoxy)phenoxy]-2-fluoro-3-(trifluoromethyl)benzoyl]amino]pyridine-2-carboxamide]: the IC50 came out at 2.5 nM.
Regarding `COc1cc(OC(F)(F)F)ccc1Oc1ccc(C(F)(F)F)c(F)c1C(=O)Nc1cc(C(N)=O)[n+]([O-])cc1C` [Compound 354, 4-[[2-fluoro-6-[2-methoxy-4-(trifluoromethoxy)phenoxy]-3-(trifluoromethyl)benzoyl]amino]-5-methyl-1-oxido-pyridin-1-ium-2-carboxamide], the IC50 turned out to be 30 nM.
Regarding `COc1c(Oc2ccc(C(F)(F)F)c(F)c2C(=O)Nc2cnc(C(N)=O)nc2)ccc(OC(F)(F)F)c1F` [Compound 331, 5-[[2-fluoro-6-[3-fluoro-2-methoxy-4-(trifluoromethoxy)phenoxy]-3-(trifluoromethyl)benzoyl]amino]pyrimidine-2-carboxamide], the IC50 turned out to be 4.6 nM.
The same measure for `COc1cc(OC(F)(F)F)ccc1Oc1ccc(C2CC2)c(C)c1C(=O)Nc1cc(C(N)=O)ncc1C` [Compound 198, 4-[[3-cyclopropyl-6-[2-methoxy-4-(trifluoromethoxy)phenoxy]-2-methyl-benzoyl]amino]-5-methyl-pyridine-2-carboxamide]: 15 nM; for `COc1cc(C(F)(F)C(F)(F)F)ccc1Oc1ccc(C(F)(F)F)c(F)c1C(=O)Nc1ccnc(C(N)=O)c1` [Compound 44, 4-[[2-fluoro-6-[2-methoxy-4-(1,1,2,2,2-pentafluoroethyl)phenoxy]-3-(trifluoromethyl)benzoyl]amino]pyridine-2-carboxamide]: 22 nM.
The figure for `Cc1c(C(F)(F)F)ccc(Oc2ccc(OC(F)(F)F)cc2C2CC2)c1C(=O)Nc1ccnc(C(N)=O)c1` [Compound 148, 4-[[6-[2-cyclopropyl-4-(trifluoromethoxy)phenoxy]-2-methyl-3-(trifluoromethyl)benzoyl]amino]pyridine-2-carboxamide] is 9 nM.
